Like-named read-outs stand apart in the source and are kept apart here.

Experimental findings from publication doi:10.1101/2022.04.14.488411v1 (biorxiv, 2022) are described below.

In series [1] the test system is RPMI 8226. The experiment in a line: cells. To be noted: Homo sapiens, RPMI-8226, 72 h, read-out: IC50 (uM).
Series [2] relates to RPMI 8226. The experiment in a line: cells. Conditions: Homo sapiens, RPMI-8226, 72 h, read-out: IC50 (uM). This is another data set of the same source.
In series [3] the test system is RPMI 8226. The experiment in a line: cells. To be noted: Homo sapiens, RPMI-8226, 72 h, read-out: IC50 (uM). This is another data set of the same source.
Series [4] concerns ABCG2. In words: cells. Conditions: Homo sapiens, RPMI-8226, 72 h, read-out: IC50 (uM).
Series [5] concerns the target T1, ABCG2 (Homo sapiens, UniProt Q9UNQ0).
T1 sequence (Q9UNQ0 1-655): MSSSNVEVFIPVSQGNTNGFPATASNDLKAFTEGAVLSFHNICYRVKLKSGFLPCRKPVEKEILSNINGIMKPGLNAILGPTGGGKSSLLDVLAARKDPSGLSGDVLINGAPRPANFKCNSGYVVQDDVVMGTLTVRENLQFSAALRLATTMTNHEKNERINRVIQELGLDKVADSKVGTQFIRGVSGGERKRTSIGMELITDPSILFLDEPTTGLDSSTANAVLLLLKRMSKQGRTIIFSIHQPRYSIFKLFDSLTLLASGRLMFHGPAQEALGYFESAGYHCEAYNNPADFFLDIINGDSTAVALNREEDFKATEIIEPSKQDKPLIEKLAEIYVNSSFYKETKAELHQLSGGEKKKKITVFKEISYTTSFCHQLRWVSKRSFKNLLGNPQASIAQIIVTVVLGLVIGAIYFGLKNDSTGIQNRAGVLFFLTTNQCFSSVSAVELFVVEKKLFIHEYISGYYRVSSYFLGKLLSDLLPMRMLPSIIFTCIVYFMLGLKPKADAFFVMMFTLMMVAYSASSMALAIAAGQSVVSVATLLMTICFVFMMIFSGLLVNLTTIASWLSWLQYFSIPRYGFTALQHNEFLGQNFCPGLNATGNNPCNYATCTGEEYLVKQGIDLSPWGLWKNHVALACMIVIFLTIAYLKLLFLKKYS
In words: potentiation of TAK-243 cytotoxicity, Resazurin viability. The class given is cell-based.

Series [6] deals with RPMI 8226. The experiment in a line: cells. Further details: species or system KMS11. Conditions: Homo sapiens, RPMI-8226, 72 h, read-out: IC50 (nM), TAK-243 alone.
Series [7] relates to RPMI 8226. The experiment in a line: cells. Further details: species or system KMS11. To be noted: Homo sapiens, RPMI-8226, 72 h, read-out: IC50 (nM), TAK-243 alone. The source holds these as a separate data set.
Another series deals with MDAY-D2. The experiment in a line: cells. Conditions: Mus musculus, MDAY-D2, 72 h, read-out: IC50 (nM).
The subject of the next series is NB4. In words: cells. To be noted: Homo sapiens, NB-4, 72 h, read-out: IC50 (nM).
A further series concerns MCF7. In words: cells. Conditions: Homo sapiens, MCF7, 72 h, read-out: IC50 (nM).
In a further series the test system is OCI-M2. The experiment in a line: cells. Conditions: OCI-M2, 72 h, read-out: IC50 (nM).
The subject of a further series is HepG2. In words: cells. Conditions: Homo sapiens, HepG2, 72 h, read-out: IC50 (nM).
The subject of the next series is MV4-11. The experiment in a line: cells. To be noted: Homo sapiens, MV4-11, 72 h, read-out: IC50 (nM).
For the next series, the system named is U937. In words: cells. Conditions: Homo sapiens, U-937, 72 h, read-out: IC50 (nM).
The test system of the next series is Jurkat. In words: cells. Conditions: Homo sapiens, Jurkat, 72 h, read-out: IC50 (nM).
In another series the test system is HEK293. The experiment in a line: cells. To be noted: Homo sapiens, HEK293, 72 h, read-out: IC50 (nM).
The subject of the next series is K562. In words: cells. To be noted: Homo sapiens, K562, 72 h, read-out: IC50 (nM).
A further series relates to OCI-AML2. In words: cells. Conditions: Homo sapiens, OCI-AML2, 72 h, read-out: IC50 (nM).
The test system of another series is A549. The experiment in a line: cells. To be noted: Homo sapiens, A549, 72 h, read-out: IC50 (nM).
In another series the test system is KMS11. The experiment in a line: cells. Also noted: species or system RPMI 8226. Conditions: Homo sapiens, KMS-11, 72 h, read-out: IC50 (nM).
In series [8] the test system is RPMI 8226. The experiment in a line: cells. To be noted: Homo sapiens, RPMI-8226, 72 h, read-out: IC50 (nM).

For `COc1ccc(CCc2nc3cc(-c4c(C)noc4C)ccc3n2C[C@H](C)N2CCOCC2)cc1Cl` [SGC-CBP30], the IC50 in the series on RPMI 8226 [1] is greater than 10 µM.

Turning to `NS(=O)(=O)OC[C@@H]1C[C@@H](n2ccc3c(N[C@H]4CCc5ccccc54)ncnc32)C[C@@H]1O` [Pevo, pevonedistat], the IC50 in the series on RPMI 8226 [2] amounted to 0.997 µM.

With `COc1cc(-c2cn(C)c(=O)c3cnccc23)c(OC)cc1CN(C)C` [BI-9564], the IC50 with RPMI 8226 [3] and in the series with ABCG2 [4] was greater than 10 µM each time.

As for `CCCc1cc(C)[nH]c(=O)c1CNC(=O)c1cc(-c2ccc(N3CCN(C(C)C)CC3)nc2)cc2c1cnn2C(C)C` [UNC1999], the IC50 in the series on RPMI 8226 [1] is greater than 10 µM.

With `COc1c(C)cc(NC(=O)c2nn(Cc3ccc(F)cc3)c3c2CN(C(=O)c2ccc[nH]2)C[C@]3(C)C(N)=O)cc1C` [GSK-864], the IC50 in the series on RPMI 8226 [1] is greater than 10 µM.

In the case of `CO[C@H]1CC[C@H](n2c([C@@H]3CCCC(=O)N3c3ccc(F)c(F)c3)nc3cc(-c4c(C)noc4C)ccc32)CC1` [Inobrodib], the IC50 in the series with RPMI 8226 [3] is 7.62 µM.

With `O=C1c2c(O)ccc(O)c2C(=O)c2c(NCCNCCO)ccc(NCCNCCO)c21` [MTX, mitoxantrone], the IC50 in the series on RPMI 8226 [2] turned out to be 0.0786 µM.

Consider `Clc1cc2c(NC3CCCC3)nnc(-c3ccncc3)c2cc1Cl` [A-196], for which, in the series with RPMI 8226 [1], the IC50 was greater than 10 µM. Further, the “apparent IC50” value on ABCG2 [5] is 521.8 nM.

In the case of `COc1ccccc1C(=O)Nc1cc2c(cc1N1CCCC1)n(C)c(=O)n2C` [PFI-4], the IC50 in the series with RPMI 8226 [1] is greater than 10 µM.

Consider `N#Cc1ccnc(N2C(=O)CC[C@H]2C(=O)N(c2cncc(F)c2)[C@H](C(=O)NC2CC(F)(F)C2)c2ccccc2Cl)c1` [Ivosidenib], for which the IC50 in the series with RPMI 8226 [3] and in the series with ABCG2 [4] was greater than 10 µM each time.

As to `NS(=O)(=O)OC[C@H]1C[C@@H](Nc2ccnc3cc(-c4cccc(SC(F)(F)F)c4)nn23)[C@H](O)[C@@H]1O` [TAK-243], the IC50 stood at 558 nM in the series on RPMI 8226 [6]; 578 nM in the series on RPMI 8226 [7]; 1230 nM in the series with MDAY-D2; 10.1 nM with NB4; 404 nM in the series with MCF7; 44 nM in the series with OCI-M2. The IC50 worked out at 60.1 nM in the series on HepG2; 19.4 nM in the series on MV4-11; 17.9 nM in the series on U937; 12.2 nM in the series on Jurkat; 177 nM with HEK293; 6.43 nM with K562. The IC50 in the series on OCI-AML2 was found to be 27.1 nM; in the series on A549 it was 1290 nM; in the series with KMS11, 685 nM; with RPMI 8226 [8], 1370 nM.

For orientation: IC50 means the concentration at which inhibition is half-maximal.
